Experimental data reported in ChEMBL document CHEMBL1201862, “PubChem BioAssay data set” (2004).
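Step 1: Grow cells in 96-well plates. Step 2: Expose to compound for 48 hours at 5 concentrations. Step 3: Interpolate endpoints linearly; if unreached, use highest concentration. GI50 is the concentration that inhibits growth by half.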 Calls of active or inactive are those of the source. Cut-off read from the data, not from the text of the source: active = GI50 up to about 1.1 µM and inactive = higher.

Experiments:
Assay in all cases: DTP human tumour cell line panel, 48 h
ACHN = tested on: ACHN
COLO 205 = tested on: COLO 205
EKVX = tested on: EKVX
HL-60 = tested on: HL-60
HOP-92 = tested on: HOP-92
KM12 = tested on: KM12
MOLT-4 = tested on: MOLT-4
Malme-3M = tested on: Malme-3M
NCI-H226 = tested on: NCI-H226
NCI-H522 = tested on: NCI-H522
OVCAR-3 = tested on: OVCAR-3
SF-295 = tested on: SF-295
SK-MEL-5 = tested on: SK-MEL-5
SN12C = tested on: SN12C
TK-10 = tested on: TK-10
UACC-62 = tested on: UACC-62
DU-145 = tested on: DU-145
MDA-MB-231 = tested on: MDA-MB-231
NCI/ADR-RES = tested on: NCI/ADR-RES

Structure (SMILES)	GI50 (ACHN)	GI50 (COLO 205)	GI50 (EKVX)	GI50 (HL-60)	GI50 (HOP-92)	GI50 (KM12)	GI50 (MOLT-4)	GI50 (Malme-3M)	GI50 (NCI-H226)	GI50 (NCI-H522)	GI50 (OVCAR-3)	GI50 (SF-295)	GI50 (SK-MEL-5)	GI50 (SN12C)	GI50 (TK-10)	GI50 (UACC-62)	GI50 (DU-145)	GI50 (MDA-MB-231)	GI50 (NCI/ADR-RES)
COc1cc(/C=C2\[C@H]3c4c(c(OC)c(C)c(OC)c4OC)C[C@@H](C(=O)N2Cc2ccccc2)N3C(=O)OCC(C)C)c(OC)c(C)c1OC	> 64.3 µM (inactive)	> 86.3 µM (inactive)	> 100 µM (inactive)	7.46 µM (inactive)	2.99 µM (inactive)	> 100 µM (inactive)	12.3 µM (inactive)	> 100 µM (inactive)	1.16 µM (inactive)	19.4 µM (inactive)	> 41.4 µM (inactive)	> 100 µM (inactive)	26.2 µM (inactive)	> 100 µM (inactive)	> 100 µM (inactive)	> 100 µM (inactive)			
c1ccc(-c2cc(-c3cccs3)c(-c3cccs3)o2)cc1	> 100 µM (inactive)	> 100 µM (inactive)	> 100 µM (inactive)	> 100 µM (inactive)	> 100 µM (inactive)	48.4 µM (inactive)	> 100 µM (inactive)		> 100 µM (inactive)		61.1 µM (inactive)	> 100 µM (inactive)	> 100 µM (inactive)	> 100 µM (inactive)	> 100 µM (inactive)	> 100 µM (inactive)	> 100 µM (inactive)	> 100 µM (inactive)	> 100 µM (inactive)
Cn1ccnc1S/C(=C\C=C(C#N)C#N)c1ccc(Cl)cc1	0.693 µM (active)	2.99 µM (inactive)	7.89 µM (inactive)	0.461 µM (active)	1.31 µM (inactive)	2.06 µM (inactive)	1.18 µM (inactive)	1.04 µM (active)		2.45 µM (inactive)	2.22 µM (inactive)	2.87 µM (inactive)	1.13 µM (inactive)	1.09 µM (active)	0.492 µM (active)	2.34 µM (inactive)	6.04 µM (inactive)		2.22 µM (inactive)
CC[N+](C)(CC)CCNC(=O)C(O)(c1ccccc1)c1ccccc1	> 100 µM (inactive)	> 100 µM (inactive)	> 100 µM (inactive)	> 100 µM (inactive)	> 100 µM (inactive)	72.9 µM (inactive)	> 100 µM (inactive)	> 100 µM (inactive)	> 100 µM (inactive)	> 100 µM (inactive)	> 100 µM (inactive)	> 100 µM (inactive)	> 100 µM (inactive)	> 100 µM (inactive)	> 100 µM (inactive)	> 100 µM (inactive)	> 100 µM (inactive)		> 100 µM (inactive)
CCOC(=O)CCC(NC(=O)C(CCC(=O)OCC)NC(=O)C(Cc1ccc([N+](=O)[O-])cc1)NC(C)=O)C(=O)NNC(=O)OC(C)(C)C (stereo unspecified)	> 100 µM (inactive)	> 100 µM (inactive)	> 100 µM (inactive)	> 100 µM (inactive)	> 100 µM (inactive)	> 100 µM (inactive)	> 100 µM (inactive)	> 100 µM (inactive)	> 100 µM (inactive)				> 100 µM (inactive)	> 100 µM (inactive)	> 100 µM (inactive)	> 100 µM (inactive)		> 100 µM (inactive)	
O=C1Nc2ccccc2C(=O)/C1=C/NC(=S)NCc1ccccc1	> 100 µM (inactive)	> 100 µM (inactive)	> 100 µM (inactive)	> 100 µM (inactive)	> 100 µM (inactive)	> 100 µM (inactive)	> 100 µM (inactive)		> 100 µM (inactive)		> 100 µM (inactive)	> 100 µM (inactive)	> 100 µM (inactive)	> 100 µM (inactive)	> 100 µM (inactive)	> 100 µM (inactive)	> 100 µM (inactive)	> 100 µM (inactive)	> 100 µM (inactive)
CC(=O)Oc1ccc2c(C)cc(=O)oc2c1OC(C)=O	29.1 µM (inactive)	42.8 µM (inactive)	48 µM (inactive)			44 µM (inactive)	34.5 µM (inactive)	17.6 µM (inactive)	30.6 µM (inactive)		40.4 µM (inactive)	47.5 µM (inactive)	37.8 µM (inactive)	57.8 µM (inactive)	24.2 µM (inactive)	49.1 µM (inactive)	28.3 µM (inactive)	48.9 µM (inactive)	24.2 µM (inactive)
CC1=Cc2cccc(C)c2C(=O)C1=O [O-HIBISCANONE]	5.12 µM (inactive)	1.91 µM (inactive)	8.11 µM (inactive)	0.481 µM (active)	1.49 µM (inactive)	4.71 µM (inactive)	0.52 µM (active)	1.8 µM (inactive)	15.8 µM (inactive)	4.72 µM (inactive)	4.37 µM (inactive)	5.14 µM (inactive)	2.28 µM (inactive)	19.5 µM (inactive)	2.39 µM (inactive)	5.58 µM (inactive)			
